For data set [1], the system named is TSU-Pr1 human prostate tumor cells. As to the kind of experiment: TSU-Pr1 prostate cancer xenograft growth in nude mice. The format is in vivo. The conditions noted are these: Experiment #1. The protocol: (§1) TSU-Pr1 human prostate tumor cells were injected subcutaneously into the flank of female athymic nude mice (nu/nu; 5×10^6 cells/mice). Upon xenografts reaching 100-500 mm^3, the mice were randomized and divided into four experimental groups. One group was administered a cocktail of neurotrophin antibodies (anti-NGF, BDNF, NT-3, and NT4/5). Each dose of antibody cocktail (100 μl) contained 100 μg of each neurotrophin antibody. The second experimental group was administered normal rabbit IgG (400 μg/100 μl; PeproTech 500-P00) as a control. All antibodies were administered intratumorally (50 μl) at five injection sites and peritumorally (50 μl) at five injection sites. […] Tumor length and width were measured every two to three days (Days 1, 3, 5, 8, 10, 12, and 15).
The fourth experimental group received vehicle only (100 μl) according to the dosing schedule of the third experimental group. Tumor length and width were measured every two to three days (Days 1, 3, 5, 8, 10, 12, and 15).
Tumor volumes were calculated as described above. The mean tumor volumes and standard errors were calculated as described above. […] Probability values were calculated as described above. […]
Tumor volumes were calculated as described above. The mean tumor volumes and standard errors were also calculated as described above. […] Probability values were calculated as described above.

The subject of data set [2] is CFPAC human pancreatic carcinoma cells. The conditions noted are these: previously published data; cited from earlier work.
Data set [3] concerns AsPC-1 human pancreatic tumor cells. The experiment in a line: AsPC-1 pancreatic cancer xenograft growth in nude mice. The format is in vivo. The procedure:
as §1, with “AsPC-1” for “TSU-Pr1”, “pancreatic” for “prostate”, “15). […]” for “15).”
Tumor volumes were calculated as described above. The mean tumor volumes and standard errors were also calculated as described above. […] Probability values were calculated as described above. […]
Tumors were measured every 2-4 days using a vernier caliper. Tumor volumes were calculated as described above. The mean tumor volumes and standard errors were also calculated as described above. […] Statistical analyses were calculated as described above with p≦0.05 deemed significant. […]

Data set [4] has the same test system. The conditions noted are these: previously published data; cited from earlier work.
Data set [5] has as its system PC-3 human prostate tumor cells. The experiment in a line: PC-3 prostate cancer xenograft growth in nude mice. In kind it is in vivo, human tumor cells in athymic nude mice. The conditions noted are these: 10 mg/kg s.c. BID. The procedure:
PC-3 human prostate tumor cells (5×10^6 cells/mice) were injected subcutaneously into the flank of eight to ten week old, female athymic nude mice (nu/nu; Charles River, Raleigh, N.C.). Mice weighed between 22-25 grams on the day of tumor implantation. Upon xenografts reaching 100-500 mm^3, the mice were randomized and divided into experimental groups. Some experimental groups were administered a cocktail of neurotrophin antibodies (4×25 μg each, or 4×100 μg each of anti-NGF, BDNF, NT-3, and NT4/5) or normal rabbit IgG (100 μg or 400 μg; PeproTech 500-P00) in sterile 1×PBS (total volume of 100 μl). All antibodies were administered intratumorally (50 μl) at five injection sites and peritumorally, subcutaneously (50 μl) at five injection sites. […] Tumor length and width were measured every two to three days. […] Tumor length and width were measured every two to three days (days 1, 3, 5, 8, 10, 12, 15, 17, 19 and 22).
Tumor volumes were calculated as (length×width (length+width)/2))×0.526 (Isaacs, Canc. […] The mean tumor volumes and standard errors were calculated (SigmaStat, Jandel Scientific, San Rafel, Calif.). […] Relative tumor volumes were calculated as (mean vt mean vo), where vt refers to tumor volume on a given day and vo is the volume of the same tumor at initiation of dosing (day 1). […] Probability values were calculated by the Mann-Whitney Rank Sum Test (SigmaStat).
(In general: In xenograft studies the graft and the host belong to different species.)

In data set [6] the target is trkA (Homo sapiens, UniProt P04629). The conditions noted are these: ELISA (stated for CEP-751); read-out: IC50 trkA inhibition; cited from earlier work.
trkA, sequence (P04629 33-796, species assumed): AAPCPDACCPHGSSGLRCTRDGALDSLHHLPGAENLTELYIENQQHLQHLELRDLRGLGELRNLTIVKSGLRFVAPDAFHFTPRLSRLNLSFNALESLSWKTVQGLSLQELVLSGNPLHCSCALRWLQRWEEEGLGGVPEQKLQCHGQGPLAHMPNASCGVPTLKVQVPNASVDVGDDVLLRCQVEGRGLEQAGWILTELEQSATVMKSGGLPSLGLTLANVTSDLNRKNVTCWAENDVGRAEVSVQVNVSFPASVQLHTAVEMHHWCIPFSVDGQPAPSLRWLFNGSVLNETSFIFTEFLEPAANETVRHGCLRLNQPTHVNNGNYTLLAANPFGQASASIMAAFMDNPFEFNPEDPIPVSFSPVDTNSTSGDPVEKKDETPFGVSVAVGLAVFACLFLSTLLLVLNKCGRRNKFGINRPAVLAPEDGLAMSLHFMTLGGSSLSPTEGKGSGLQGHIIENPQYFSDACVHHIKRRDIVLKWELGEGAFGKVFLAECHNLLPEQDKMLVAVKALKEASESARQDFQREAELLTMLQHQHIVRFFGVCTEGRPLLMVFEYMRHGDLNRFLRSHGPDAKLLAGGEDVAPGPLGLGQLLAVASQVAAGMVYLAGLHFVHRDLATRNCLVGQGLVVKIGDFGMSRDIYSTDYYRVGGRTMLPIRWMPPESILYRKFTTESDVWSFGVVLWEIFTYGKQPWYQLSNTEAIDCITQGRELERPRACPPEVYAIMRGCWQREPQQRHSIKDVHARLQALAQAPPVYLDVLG

As a reminder, the IC50 is the concentration needed to halve the response being measured.

SMILES strings stand for the structures.

In the case of `C[C@]12O[C@H](C[C@]1(O)CO)n1c3ccccc3c3c4c(c5c6ccccc6n2c5c31)CNC4=O` [CEP-701], the “Minimum T/C (absolute tumor volumes vs vehicle control)” value came out at 0.29 in data set [1] (10 mg/kg sc BID, Days 12 and 15); 0.27 in data set [3] (10 mg/kg sc BID, Day 15). Also, the “Tolerability (deaths or morbidity)” value in data set [1] (nude mice bearing TSU-Pr1 xenografts) and in data set [3] (nude mice bearing AsPC-1 xenografts) was “well tolerated” in each case. Also, the CFPAC tumor growth entry in data set [2] is recorded as “insensitive”. In addition, the “Growth of AsPC-1 tumors” value in data set [4] was “inhibited”.
Take `CO[C@]1(CO)C[C@H]2O[C@]1(C)n1c3ccccc3c3c4c(c5c6ccccc6n2c5c31)C(=O)NC4` [CEP-751]: in data set [5] (22 days), the “Growth of PC-3 tumors relative to vehicle control” value is “inhibited the growth of PC-3 tumors”. In data set [5] (day 19), the “Minimum T/C (absolute tumor volumes vs vehicle control)” value worked out at 0.44. In data set [6], the IC50 is 3 nM.

Values taken from US6548062B2, “Method of treating cancer with anti-neurotrophin agents” (Cephalon, Inc., priority 2000, dated 2003).
